We go through seven compounds from patent US20090305276A1, “Method for Predicting Skin Sensitizing Activity of Compounds” (priority 2008, published 2009).

One data set relates to NQO1. The data set is described as follows: NQO1 (quinone reductase) marker gene expression in cultured mammalian cells. It is filed as cell-based. On the set-up: key: The ++ signs indicate positive response and the number represents the magnitude of response; The ++ signs indicate positive response and the number represents the magnitude of response; −−−: The dashed lines indicate no measurable response; −−−−: The dashed lines indicate no measurable response; −−−−−: The dashed lines indicate no measurable response. Conditions: gene marker response, preliminary data. The text has this:
(§1) Specifically, chemicals would be placed in an appropriate vehicle such as DMSO and applied to appropriate mammalian cells, such as human keratinocytes (HaCat cells), 3D human skin cells, normal human epithelial cells (NHEK cells), MCF7 cells, H4IIE cells (ATCC Accession #CRL-1548), or combination cultures including keratinocyte and dendritic cells. Following exposure times of 6, 24, and 72 hr the expression levels of several genes that are associated with an increase risk for sensitization type reactions. The expression of key gene markers associated with sensitization that include but are not limited to quinone reductase, IL-8, CD-86, aldo-keto reductase, thioredoxin, and thioredoxin reductase is measured by RT-PCR.
(§2) In specific embodiments, the expression of gene markers is measured. Appropriate gene markers for the methods of the invention include but are not limited to quinone reductase, IL-8, CD-86, aldo-keto reductase, thioredoxin, and thioredoxin reductase. Expression levels may be measured by any appropriate method of measuring gene expression, including but not limited to polymerase chain reaction (PCR), reverse transcriptase PCR (RT-PCR), fluorescent in situ hybridization (FISH), branched DNA (bDNA) assay, differential display, RNA interference, reporter genes, microarrays, and proteomics. For instance, expression levels may be measured by RT-PCR in at least triplicates. The standard protocols for performing RT-PCR may be obtained from Invitrogen, (Carlsbad, Calif.). Standard methods and protocols for measuring gene expression are described in the literature and in treatises such as Sambrook et al., “Molecular Cloning: A Laboratory Manual” and Avison, Matthew, “Measuring Gene Expression,” Taylor and Francis (2006). These protocols are incorporated herein by reference in their entirety.
(§3) As shown in Table 2 (below), preliminary data were collected and used to build the algorithm for predicting the sensitization. NQO1 is quinone reductase; IL-8 is interleukin-8; and AKR is aldo-keto reductase.
(§4) The compounds listed in Table 2 are known skin sensitizers with different magnitudes of effect. In this example, three gene markers are measured to develop a relationship between the magnitude of response, the number of genes responding above about 15%, and the minimum exposure concentration where expression occurred. The ++ signs indicate positive response and the number represents the magnitude of response. The dashed lines indicate no measurable response.

The next data set concerns IL-8. The data set is described as follows: IL-8 (interleukin-8) marker gene expression in cultured mammalian cells. It is filed as cell-based. On the set-up: key: The ++ signs indicate positive response and the number represents the magnitude of response; The ++ signs indicate positive response and the number represents the magnitude of response; −−−: The dashed lines indicate no measurable response; −−−−: The dashed lines indicate no measurable response; −−−−−: The dashed lines indicate no measurable response. Conditions: gene marker response, preliminary data.
Excerpt: as §1, §2, §3, §4

In a further data set the test system is AKR. The data set is described as follows: AKR (aldo-keto reductase) marker gene expression in cultured mammalian cells. It is filed as cell-based. Also on record: key: The ++ signs indicate positive response and the number represents the magnitude of response; The ++ signs indicate positive response and the number represents the magnitude of response; −−−: The dashed lines indicate no measurable response; −−−−: The dashed lines indicate no measurable response; −−−−−: The dashed lines indicate no measurable response. Conditions: gene marker response, preliminary data.
Excerpt: as §1, §2, §3, §4

The test system of data set [1] is local draining lymph nodes (lymphocyte proliferation). Conditions: known LLNA data; estimated concentration required to produce a stimulation index of 3; cited from earlier work.
Another data set concerns skin. Conditions: cited from earlier work.
Where [2] appears, read: known skin sensitizers with different magnitudes of effect.

Where two headings read alike, the source gives them in different places.

For the compound `O=C(Oc1ccccc1)c1ccccc1` [Phenyl Benzoate], in the data set with NQO1, the NQO1 result is reported as “+”. The IL-8 entry in the data set on IL-8 was “+”. In the data set on AKR, the AKR result is recorded as “−−−−”. Further, the “LLNA E3C” value in data set [1] is listed as 863. Further, the “Sensitizer Class” value in the data set on skin (setting [2]) was “Weak”.

Take `COc1cc(C=O)ccc1O` [Vanillin]: the NQO1 entry in the data set on NQO1 is given as “+”. The IL-8 entry with IL-8 is “−−−−”. Further, the AKR result in the data set on AKR was “−−−−”. Moreover, the “Sensitizer Class” value with skin (setting [2]) is listed as “Very Weak”.

For the compound `O=C(C=Cc1ccccc1)OCc1ccccc1` [Benzyl Cinnamate], the NQO1 entry with NQO1 is “++”. Also, the IL-8 entry in the data set on IL-8 is listed as “−−−”. The AKR result with AKR is recorded as “++”.

Regarding `CCCOC(=O)c1cc(O)c(O)c(O)c1` [Propyl Gallate], the NQO1 result in the data set with NQO1 is on record as “++”. In addition, in the data set on IL-8, the IL-8 entry was “++”. The AKR entry in the data set on AKR is recorded as “++”. In data set [1], the “LLNA E3C” value is 15.09. Moreover, the “Sensitizer Class” value with skin (in vivo) is “Strong”.

As for `CC=Cc1ccc(O)c(OC)c1` [Isoeugenol], the NQO1 result with NQO1 was “+”. Moreover, the IL-8 entry in the data set on IL-8 is given as “+”. In addition, in the data set with AKR, the AKR result was “++”. In addition, the “LLNA E3C” value in data set [1] is on record as 110. The “Sensitizer Class” value in the data set on skin (setting [2]) is on record as “Moderate”.

For `O=C(O)c1ccccc1` [Benzoic Acid], the NQO1 entry in the data set on NQO1 is reported as “−−−−”. In the data set with IL-8, the IL-8 entry is listed as “−−−−−”. Moreover, in the data set on AKR, the AKR entry is listed as “−−−−−”. In addition, in the data set on skin (setting [2]), the “Sensitizer Class” value is given as “Non-”.

In the case of `O=C1OC(=O)c2ccccc21` [Phthalic Anhydride], in the data set on NQO1, the NQO1 entry was “++”. The IL-8 entry with IL-8 is recorded as “+”. Also, in the data set on AKR, the AKR entry is listed as “++”. Besides, the “LLNA E3C” value in data set [1] is listed as 10.8. The “Sensitizer Class” value in the data set on skin (setting [2]) is on record as “Strong”.
